Measured values reported in patent US20150017667A1, “MEANS AND METHODS FOR ASSESSING LIVER DISORDERS” (BASF SE, priority 2012, published 2015).
Marks after values point to notes of the source that are not given here.

Test system: male rats
Experiment: 28-day repeated dose oral toxicity study (OECD 407) with GC-MS/LC-MS plasma metabolite profiling, male rats
Type: in vivo, rat
Settings: plasma
Excerpt: Drinking water was also offered ad libitum.
The samples were centrifuged for generation of plasma.

CC(C)(Oc1ccc(CCNC(=O)c2ccc(Cl)cc2)cc1)C(=O)O [Bezafibrate]
3-O-Methylsphingosine (d18:1), ratio versus control (day 7): 0.48* | 5-O-Methylsphingosine (d18:1), ratio versus control (day 7): 0.4* | 14-Methylhexadecanoic acid, ratio versus control (day 7): 0.93 | 16-Methylheptadecanoic acid, ratio versus control (day 7): 0.29* | 17-Methyloctadecanoic acid, ratio versus control (day 7): 0.24* | Arachidonic acid (C20:cis[5,8,11,14]4), ratio versus control (day 7): 0.26* | Arginine, ratio versus control (day 7): 0.65* | Ascorbic acid, ratio versus control (day 7): 1.54* | Behenic acid (C22:0), ratio versus control (day 7): 0.44* | Campesterol, ratio versus control (day 7): 0.24* | Cholesterol, ratio versus control (day 7): 0.37* | Choline plasmalogen (C18,C20:4), ratio versus control (day 7): 0.47* | Choline plasmalogen No 01, ratio versus control (day 7): 0.87* | Choline plasmalogen No 02, ratio versus control (day 7): 0.46* | Choline plasmalogen No 03, ratio versus control (day 7): 0.49* | Coenzyme Q10, ratio versus control (day 7): 0.46* | Cytosine, ratio versus control (day 7): 0.89* | Docosapentaenoic acid (C22:cis[7,10,13,16,19]5), ratio versus control (day 7): 0.43* | Eicosanoic acid (C20:0), ratio versus control (day 7): 0.51* | Glucose, ratio versus control (day 7): 1.54* | Glycine, ratio versus control (day 7): 1.79* | Heptadecanoic acid (C17:0), ratio versus control (day 7): 0.69* | Isopalmitic acid (C16:0), ratio versus control (day 7): 0.53* | Kynurenic acid, ratio versus control (day 7): 1.89* | Lignoceric acid (C24:0), ratio versus control (day 7): 0.54* | Lysophosphatidylcholine (C17:0), ratio versus control (day 7): 0.51* | Lysophosphatidylcholine (C18:0), ratio versus control (day 7): 0.79* | Lysophosphatidylcholine (C18:2), ratio versus control (day 7): 1.4* | Lysophosphatidylethanolamine (C22:0), ratio versus control (day 7): 0.27* | Lysophosphatidylethanolamine (C22:5), ratio versus control (day 7): 1.59* | Mannose, ratio versus control (day 7): 1.32* | Metanephrine, ratio versus control (day 7): 0.5 | Nervonic acid (C24:cis[15]1), ratio versus control (day 7): 0.4* | Normetanephrine, ratio versus control (day 7): 0.6* | Pantothenic acid, ratio versus control (day 7): 2.36* | Phosphatidylcholine (C18:0,C20:3), ratio versus control (day 7): 0.48* | Phosphatidylcholine (C18:0,C20:4), ratio versus control (day 7): 0.78* | Phosphatidylcholine (C18:2,C20:4), ratio versus control (day 7): 0.65* | Phosphatidylcholine No 02, ratio versus control (day 7): 0.35* | Phosphatidylcholine No 04, ratio versus control (day 7): 0.23* | Sphingomyelin (d18:1,C16:0), ratio versus control (day 7): 0.88* | Sphingomyelin (d18:2,C16:0), ratio versus control (day 7): 0.72* | Stearic acid (C18:0), ratio versus control (day 7): 0.42* | Tricosanoic acid (C23:0), ratio versus control (day 7): 0.5* | beta-Sitosterol, ratio versus control (day 7): 0.24* | dihomo-gamma-Linolenic acid (C20:cis[8,11,14]3), ratio versus control (day 7): 3.63* | erythro-Sphingosine, ratio versus control (day 7): 0.49* | myo-Inositol-2-phosphate, lipid fraction, ratio versus control (day 7): 0.28* | threo-Sphingosine, ratio versus control (day 7): 0.56* | trans-4-Hydroxyproline, ratio versus control (day 7): 0.71* | Lysophosphatidylcholine (C18:1), ratio versus control (day 7 (Table 3a)): 1.44* | Phosphatidylcholine (C16:0,C20:5), ratio versus control (day 7 (Table 3a)): 1.4* | Docosahexaenoic acid (C22:cis[4,7,10,13,16,19]6), ratio versus control (day 7 (Table 3b)): 0.25* | Phosphatidylcholine (C18:0,C22:6), ratio versus control (day 7 (Table 3b)): 0.36* | alpha-Tocopherol, ratio versus control (day 7 (Table 3b)): 0.75* | 3-O-Methylsphingosine (d18:1), ratio versus control (day 14): 0.44* | 5-O-Methylsphingosine (d18:1), ratio versus control (day 14): 0.41* | 14-Methylhexadecanoic acid, ratio versus control (day 14): 0.89* | 16-Methylheptadecanoic acid, ratio versus control (day 14): 0.25* | 17-Methyloctadecanoic acid, ratio versus control (day 14): 0.24* | Arachidonic acid (C20:cis[5,8,11,14]4), ratio versus control (day 14): 0.31* | Arginine, ratio versus control (day 14): 0.59* | Ascorbic acid, ratio versus control (day 14): 1.32* | Behenic acid (C22:0), ratio versus control (day 14): 0.58* | Campesterol, ratio versus control (day 14): 0.31* | Cholesterol, ratio versus control (day 14): 0.48* | Choline plasmalogen (C18,C20:4), ratio versus control (day 14): 0.5* | Choline plasmalogen No 01, ratio versus control (day 14): 0.82* | Choline plasmalogen No 02, ratio versus control (day 14): 0.52* | Choline plasmalogen No 03, ratio versus control (day 14): 0.63* | Coenzyme Q10, ratio versus control (day 14): 0.58* | Cytosine, ratio versus control (day 14): 0.84 | Docosapentaenoic acid (C22:cis[7,10,13,16,19]5), ratio versus control (day 14): 0.62* | Eicosanoic acid (C20:0), ratio versus control (day 14): 0.67* | Glucose, ratio versus control (day 14): 1.29* | Glycine, ratio versus control (day 14): 1.58* | Heptadecanoic acid (C17:0), ratio versus control (day 14): 0.83* | Isopalmitic acid (C16:0), ratio versus control (day 14): 0.53* | Kynurenic acid, ratio versus control (day 14): 5.15* | Lignoceric acid (C24:0), ratio versus control (day 14): 0.44* | Lysophosphatidylcholine (C17:0), ratio versus control (day 14): 0.51* | Lysophosphatidylcholine (C18:0), ratio versus control (day 14): 0.85* | Lysophosphatidylcholine (C18:2), ratio versus control (day 14): 1.68* | Lysophosphatidylethanolamine (C22:0), ratio versus control (day 14): 0.32* | Lysophosphatidylethanolamine (C22:5), ratio versus control (day 14): 1.9* | Mannose, ratio versus control (day 14): 1.34* | Metanephrine, ratio versus control (day 14): 0.44* | Nervonic acid (C24:cis[15]1), ratio versus control (day 14): 0.44* | Normetanephrine, ratio versus control (day 14): 0.5* | Pantothenic acid, ratio versus control (day 14): 2.3* | Phosphatidylcholine (C18:0,C20:3), ratio versus control (day 14): 0.56* | Phosphatidylcholine (C18:0,C20:4), ratio versus control (day 14): 0.78 | Phosphatidylcholine (C18:2,C20:4), ratio versus control (day 14): 0.66* | Phosphatidylcholine No 02, ratio versus control (day 14): 0.37* | Phosphatidylcholine No 04, ratio versus control (day 14): 0.25* | Sphingomyelin (d18:1,C16:0), ratio versus control (day 14): 0.83* | Sphingomyelin (d18:2,C16:0), ratio versus control (day 14): 0.67* | Stearic acid (C18:0), ratio versus control (day 14): 0.45* | Tricosanoic acid (C23:0), ratio versus control (day 14): 0.72* | beta-Sitosterol, ratio versus control (day 14): 0.3* | dihomo-gamma-Linolenic acid (C20:cis[8,11,14]3), ratio versus control (day 14): 4.4* | erythro-Sphingosine, ratio versus control (day 14): 0.4* | myo-Inositol-2-phosphate, lipid fraction, ratio versus control (day 14): 0.37* | threo-Sphingosine, ratio versus control (day 14): 0.52* | trans-4-Hydroxyproline, ratio versus control (day 14): 0.57* | Lysophosphatidylcholine (C18:1), ratio versus control (day 14 (Table 3a)): 1.92* | Phosphatidylcholine (C16:0,C20:5), ratio versus control (day 14 (Table 3a)): 1.4* | Docosahexaenoic acid (C22:cis[4,7,10,13,16,19]6), ratio versus control (day 14 (Table 3b)): 0.25* | Phosphatidylcholine (C18:0,C22:6), ratio versus control (day 14 (Table 3b)): 0.33* | alpha-Tocopherol, ratio versus control (day 14 (Table 3b)): 0.77* | 3-O-Methylsphingosine (d18:1), ratio versus control (day 28): 0.39* | 5-O-Methylsphingosine (d18:1), ratio versus control (day 28): 0.4* | 14-Methylhexadecanoic acid, ratio versus control (day 28): 0.83* | 16-Methylheptadecanoic acid, ratio versus control (day 28): 0.16* | 17-Methyloctadecanoic acid, ratio versus control (day 28): 0.17* | Arachidonic acid (C20:cis[5,8,11,14]4), ratio versus control (day 28): 0.29* | Arginine, ratio versus control (day 28): 0.62* | Ascorbic acid, ratio versus control (day 28): 1.55* | Behenic acid (C22:0), ratio versus control (day 28): 0.51* | Campesterol, ratio versus control (day 28): 0.21* | Cholesterol, ratio versus control (day 28): 0.43* | Choline plasmalogen (C18,C20:4), ratio versus control (day 28): 0.51* | Choline plasmalogen No 01, ratio versus control (day 28): 0.55* | Choline plasmalogen No 02, ratio versus control (day 28): 0.49* | Choline plasmalogen No 03, ratio versus control (day 28): 0.54* | Coenzyme Q10, ratio versus control (day 28): 0.48* | Cytosine, ratio versus control (day 28): 0.79* | Docosapentaenoic acid (C22:cis[7,10,13,16,19]5), ratio versus control (day 28): 0.31* | Eicosanoic acid (C20:0), ratio versus control (day 28): 0.52* | Glucose, ratio versus control (day 28): 1.32* | Glycine, ratio versus control (day 28): 1.95* | Heptadecanoic acid (C17:0), ratio versus control (day 28): 0.52* | Isopalmitic acid (C16:0), ratio versus control (day 28): 0.47* | Kynurenic acid, ratio versus control (day 28): 2.04* | Lignoceric acid (C24:0), ratio versus control (day 28): 0.44* | Lysophosphatidylcholine (C17:0), ratio versus control (day 28): 0.36* | Lysophosphatidylcholine (C18:0), ratio versus control (day 28): 0.86* | Lysophosphatidylcholine (C18:2), ratio versus control (day 28): 1.33* | Lysophosphatidylethanolamine (C22:0), ratio versus control (day 28): 0.18* | Lysophosphatidylethanolamine (C22:5), ratio versus control (day 28): 1.29* | Mannose, ratio versus control (day 28): 1.23* | Metanephrine, ratio versus control (day 28): 0.55* | Nervonic acid (C24:cis[15]1), ratio versus control (day 28): 0.39* | Normetanephrine, ratio versus control (day 28): 0.78* | Pantothenic acid, ratio versus control (day 28): 3.51* | Phosphatidylcholine (C18:0,C20:3), ratio versus control (day 28): 0.57* | Phosphatidylcholine (C18:0,C20:4), ratio versus control (day 28): 0.75* | Phosphatidylcholine (C18:2,C20:4), ratio versus control (day 28): 0.56* | Phosphatidylcholine No 02, ratio versus control (day 28): 0.47* | Phosphatidylcholine No 04, ratio versus control (day 28): 0.24* | Sphingomyelin (d18:1,C16:0), ratio versus control (day 28): 0.71* | Sphingomyelin (d18:2,C16:0), ratio versus control (day 28): 0.49* | Stearic acid (C18:0), ratio versus control (day 28): 0.39* | Tricosanoic acid (C23:0), ratio versus control (day 28): 0.54* | beta-Sitosterol, ratio versus control (day 28): 0.2* | dihomo-gamma-Linolenic acid (C20:cis[8,11,14]3), ratio versus control (day 28): 3.24* | erythro-Sphingosine, ratio versus control (day 28): 0.43* | myo-Inositol-2-phosphate, lipid fraction, ratio versus control (day 28): 0.38* | threo-Sphingosine, ratio versus control (day 28): 0.55* | trans-4-Hydroxyproline, ratio versus control (day 28): 0.72* | Lysophosphatidylcholine (C18:1), ratio versus control (day 28 (Table 3a)): 1.22* | Phosphatidylcholine (C16:0,C20:5), ratio versus control (day 28 (Table 3a)): 1.21* | Docosahexaenoic acid (C22:cis[4,7,10,13,16,19]6), ratio versus control (day 28 (Table 3b)): 0.14* | Phosphatidylcholine (C18:0,C22:6), ratio versus control (day 28 (Table 3b)): 0.27* | alpha-Tocopherol, ratio versus control (day 28 (Table 3b)): 0.64*
